Where two headings read alike, the source gives them in different places.
What was measured:
[1] = system: MV4;11 cells; assay: Cell viability assay (CellTiter-Glo) in MV4;11 cells, alone or with gilteritinib; assay type: cell-based; conditions: Homo sapiens, MV4-11, 72 h, MV4;11 cells, three days, CellTiter-Glo, read-out: MV4
[2] = system: MOLM-13 cells; assay: Cell viability assay (CellTiter-Glo) in MOLM-13 cells, alone or with gilteritinib; assay type: cell-based; conditions: Homo sapiens, MOLM-13, 72 h, MOLM-13 cells, three days, CellTiter-Glo
[3] = compound alone (without gilteritinib), 11 IC50
[4] = compound with gilteritinib 10 nM, 11 IC50 gilteritinib
[5] = compound alone (without gilteritinib), read-out: MOLM-13 IC50
[6] = compound with gilteritinib 20 nM, read-out: MOLM-13 IC50 gilteritinib

Row | SMILES | IC50 [1, 3] | IC50 [1, 4] | IC50 [2, 5] | IC50 [2, 6]
1 | O=C1CCC(N2C(=O)c3ccc(NC[C@H]4C[C@H](n5cc(-c6ccccn6)cn5)C4)cc3C2=O)C(=O)N1 (stereo partly drawn) [GS-577, 2-(2,6-Dioxopiperidin-3-yl)-5-(((trans-3-(4-(pyridin-2-yl)-1H-pyrazol-1-yl)cyclobutyl)methyl)amino)isoindoline-1,3-dione] | > 1000 nM | > 1000 nM | 100 to 1000 nM | 100 to 1000 nM
2 | Cc1cccc(-c2cnn([C@H]3C[C@H](CNc4ccc5c(c4)C(=O)N(C4CCC(=O)NC4=O)C5=O)C3)c2)n1 (stereo partly drawn) [GS-578, 2-(2,6-Dioxopiperidin-3-yl)-5-(((trans-3-(4-(6-methylpyridin-2-yl)-1H-pyrazol-1-yl)cyclobutyl)methyl)amino)isoindoline-1,3-dione] | > 1000 nM | 100 to 1000 nM | > 1000 nM | 100 to 1000 nM
3 | C[C@@H]1CN(c2ccc3ncc(-c4cnn([C@H]5C[C@H](CCCNc6ccc7c(c6)C(=O)N(C6CCC(=O)NC6=O)C7=O)C5)c4)nc3c2)CCN1C (stereo partly drawn) [GS-581, 5-((3-(trans-3-(4-(7-((R)-3,4-Dimethylpiperazin-1-yl)quinoxalin-2-yl)-1H-pyrazol-1-yl)cyclobutyl)propyl)amino)-2-(2,6-dioxopiperidin-3-yl)isoindoline-1,3-dione] | > 1000 nM | 10 to 100 nM | > 1000 nM | < 10 nM
4 | O=C1CCC(N2C(=O)c3ccc(NCCC[C@H]4C[C@H](n5cc(-c6ccccn6)cn5)C4)cc3C2=O)C(=O)N1 (stereo partly drawn) [GS-582, 2-(2,6-Dioxopiperidin-3-yl)-5-((3-(trans-3-(4-(pyridin-2-yl)-1H-pyrazol-1-yl)cyclobutyl)propyl)amino)isoindoline-1,3-dione] | 100 to 1000 nM | 10 to 100 nM | > 1000 nM | 10 to 100 nM
5 | Cc1cccc(-c2cnn([C@H]3C[C@H](CCCNc4ccc5c(c4)C(=O)N(C4CCC(=O)NC4=O)C5=O)C3)c2)n1 (stereo partly drawn) [GS-584, 2-(2,6-Dioxopiperidin-3-yl)-5-((3-(trans-3-(4-(6-methylpyridin-2-yl)-1H-pyrazol-1-yl)cyclobutyl)propyl)amino)isoindoline-1,3-dione] | 10 to 100 nM | 10 to 100 nM | 100 to 1000 nM | < 10 nM

Other lines, results leading:

Row | IC50 [1, 3] | IC50 [1, 4] | IC50 [2, 5] | IC50 [2, 6] | SMILES
6 | 10 to 100 nM | < 10 nM | 10 to 100 nM | < 10 nM | C[C@H]1CN(c2ccc3ncc(-c4cnn([C@H]5C[C@H](CCCNc6ccc7c(c6)C(=O)N(C6CCC(=O)NC6=O)C7=O)C5)c4)nc3c2)CCN1C (stereo partly drawn) [GS-575, 5-((3-(trans-3-(4-(7-((S)-3,4-Dimethylpiperazin-1-yl)quinoxalin-2-yl)-1H-pyrazol-1-yl)cyclobutyl)propyl)amino)-2-(2,6-dioxopiperidin-3-yl)isoindoline-1,3-dione]
7 | 10 to 100 nM | < 10 nM | 10 to 100 nM | < 10 nM | C[C@H]1CN(c2ccc3ncc(-c4cnn([C@H]5C[C@H](CCCNc6ccc7c(c6)C(=O)N(C6CCC(=O)NC6=O)C7=O)C5)c4)nc3c2)CCN1 (stereo partly drawn) [GS-576, 2-(2,6-Dioxopiperidin-3-yl)-5-((3-(trans-3-(4-(7-((S)-3-methylpiperazin-1-yl)quinoxalin-2-yl)-1H-pyrazol-1-yl)cyclobutyl)propyl)amino)isoindoline-1,3-dione]
8 | < 10 nM | < 10 nM | < 10 nM | < 10 nM | O=C1CCC(N2C(=O)c3ccc(NC[C@H]4C[C@H](n5cc(-c6cnc7ccccc7n6)c(C6CC6)n5)C4)cc3C2=O)C(=O)N1 (stereo partly drawn) [GS-579, 5-(((trans-3-(3-Cyclopropyl-4-(quinoxalin-2-yl)-1H-pyrazol-1-yl)cyclobutyl)methyl)amino)-2-(2,6-dioxopiperidin-3-yl)isoindoline-1,3-dione]
9 | 10 to 100 nM | < 10 nM | 10 to 100 nM | < 10 nM | O=C1CCC(N2C(=O)c3ccc(NCCC[C@H]4C[C@H](n5cc(-c6cnc7ccc(N8CCN(C9CCC9)CC8)cc7n6)cn5)C4)cc3C2=O)C(=O)N1 (stereo partly drawn) [GS-580, 5-((3-(trans-3-(4-(7-(4-Cyclobutylpiperazin-1-yl)quinoxalin-2-yl)-1H-pyrazol-1-yl)cyclobutyl)propyl)amino)-2-(2,6-dioxopiperidin-3-yl)isoindoline-1,3-dione]

Reference: patent US20240050428A1 (Cullgen (Shanghai), Inc., priority 2020, published 2024)
